What all share (experiment): [3H]-dTTP incorporation into poly(dA)/oligo(dT)[…]
Format in all cases: biochemical

In assay [1] the target is T1, human pol κ (Homo sapiens, UniProt Q9UBT6).
T1 construct: gene POLK; truncated, residues 1-560, C-terminal 6xHis tag, produced in E. coli
T1 sequence (Q9UBT6 1-560): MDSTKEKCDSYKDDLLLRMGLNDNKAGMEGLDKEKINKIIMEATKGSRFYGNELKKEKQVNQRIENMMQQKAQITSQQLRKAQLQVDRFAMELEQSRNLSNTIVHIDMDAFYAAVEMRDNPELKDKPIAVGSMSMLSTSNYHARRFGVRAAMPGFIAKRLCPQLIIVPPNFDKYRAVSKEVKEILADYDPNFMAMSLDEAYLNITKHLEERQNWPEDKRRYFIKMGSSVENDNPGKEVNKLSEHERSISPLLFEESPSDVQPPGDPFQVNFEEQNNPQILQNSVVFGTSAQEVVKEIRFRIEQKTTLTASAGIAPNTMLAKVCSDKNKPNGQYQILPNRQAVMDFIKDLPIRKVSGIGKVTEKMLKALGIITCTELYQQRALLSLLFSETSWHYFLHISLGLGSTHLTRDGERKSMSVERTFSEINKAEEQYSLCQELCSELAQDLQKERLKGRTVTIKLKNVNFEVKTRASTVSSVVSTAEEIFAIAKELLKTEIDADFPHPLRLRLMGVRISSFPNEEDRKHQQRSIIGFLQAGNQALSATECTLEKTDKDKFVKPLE
The following applies: read-out: relative pol activity at 100 μM.

Another assay addresses T2, calf pol α (Bos taurus, UniProt A0AAA9THK8).
T2 construct: gene POLA1; with DNA polymerase alpha subunit B; DNA primase small subunit; DNA primase large subunit
The following applies: read-out: relative pol activity at 100 μM.

For assay [2], the target named is T3, human pol λ (Homo sapiens, UniProt Q9UGP5).
T3 construct: gene POLL; recombinant, His-tagged
T3 sequence (Q9UGP5 1-575): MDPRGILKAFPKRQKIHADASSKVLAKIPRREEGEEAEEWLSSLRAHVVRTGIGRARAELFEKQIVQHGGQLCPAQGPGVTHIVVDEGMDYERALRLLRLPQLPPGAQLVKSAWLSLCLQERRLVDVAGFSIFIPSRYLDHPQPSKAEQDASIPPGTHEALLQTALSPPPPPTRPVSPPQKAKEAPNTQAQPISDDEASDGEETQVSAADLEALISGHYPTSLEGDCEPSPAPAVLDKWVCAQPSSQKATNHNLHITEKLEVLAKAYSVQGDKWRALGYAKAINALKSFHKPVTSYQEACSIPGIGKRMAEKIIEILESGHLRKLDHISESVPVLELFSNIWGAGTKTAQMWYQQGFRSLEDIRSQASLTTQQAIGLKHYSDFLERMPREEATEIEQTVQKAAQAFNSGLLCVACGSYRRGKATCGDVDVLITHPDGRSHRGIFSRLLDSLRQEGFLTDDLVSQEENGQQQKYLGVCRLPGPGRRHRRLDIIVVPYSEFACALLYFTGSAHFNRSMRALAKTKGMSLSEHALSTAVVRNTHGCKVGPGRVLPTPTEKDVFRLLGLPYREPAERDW
The settings on record: read-out: relative pol activity at 100 μM.

Assay [3] has as its target T3, human pol λ.
Another assay concerns the target T4, human pol γ (Homo sapiens, UniProt P54098).
T4 construct: gene POLG
T4 sequence (P54098 1-1239): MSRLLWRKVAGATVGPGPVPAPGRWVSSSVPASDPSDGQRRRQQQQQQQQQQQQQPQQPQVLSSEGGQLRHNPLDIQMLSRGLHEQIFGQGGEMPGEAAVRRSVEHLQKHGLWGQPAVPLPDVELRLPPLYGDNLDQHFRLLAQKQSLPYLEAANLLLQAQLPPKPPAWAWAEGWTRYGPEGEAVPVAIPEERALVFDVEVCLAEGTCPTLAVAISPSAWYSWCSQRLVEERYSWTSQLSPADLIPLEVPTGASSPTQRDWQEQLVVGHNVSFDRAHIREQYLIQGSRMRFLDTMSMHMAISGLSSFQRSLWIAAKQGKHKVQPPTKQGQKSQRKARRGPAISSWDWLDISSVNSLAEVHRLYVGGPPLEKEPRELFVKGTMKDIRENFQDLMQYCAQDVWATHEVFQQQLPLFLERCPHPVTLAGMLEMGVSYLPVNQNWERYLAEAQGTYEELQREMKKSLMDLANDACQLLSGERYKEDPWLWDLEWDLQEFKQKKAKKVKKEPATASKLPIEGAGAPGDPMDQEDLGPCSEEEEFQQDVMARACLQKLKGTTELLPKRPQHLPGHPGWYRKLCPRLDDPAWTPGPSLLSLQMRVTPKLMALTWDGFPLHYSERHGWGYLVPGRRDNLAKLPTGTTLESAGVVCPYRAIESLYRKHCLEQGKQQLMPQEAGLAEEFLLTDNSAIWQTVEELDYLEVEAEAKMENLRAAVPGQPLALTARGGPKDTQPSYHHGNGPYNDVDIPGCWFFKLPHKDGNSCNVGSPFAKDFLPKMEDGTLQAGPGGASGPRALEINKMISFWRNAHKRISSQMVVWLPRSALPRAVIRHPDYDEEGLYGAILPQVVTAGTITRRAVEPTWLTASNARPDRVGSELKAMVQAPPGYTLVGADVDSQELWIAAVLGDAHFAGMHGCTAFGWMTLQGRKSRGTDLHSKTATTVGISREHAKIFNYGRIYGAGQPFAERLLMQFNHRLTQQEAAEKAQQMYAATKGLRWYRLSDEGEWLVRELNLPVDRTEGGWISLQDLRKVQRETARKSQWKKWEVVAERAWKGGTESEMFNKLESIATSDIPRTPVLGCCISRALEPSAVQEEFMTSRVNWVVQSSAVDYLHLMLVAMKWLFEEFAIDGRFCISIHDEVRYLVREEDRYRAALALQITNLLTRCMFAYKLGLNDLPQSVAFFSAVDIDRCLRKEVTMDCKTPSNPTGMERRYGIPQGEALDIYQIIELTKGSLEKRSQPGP

The target of assay [4] is T1, human pol κ.

What is called IC50 is the concentration that inhibits the measured activity by half.

T2 sequence (A0AAA9THK8 1-1487): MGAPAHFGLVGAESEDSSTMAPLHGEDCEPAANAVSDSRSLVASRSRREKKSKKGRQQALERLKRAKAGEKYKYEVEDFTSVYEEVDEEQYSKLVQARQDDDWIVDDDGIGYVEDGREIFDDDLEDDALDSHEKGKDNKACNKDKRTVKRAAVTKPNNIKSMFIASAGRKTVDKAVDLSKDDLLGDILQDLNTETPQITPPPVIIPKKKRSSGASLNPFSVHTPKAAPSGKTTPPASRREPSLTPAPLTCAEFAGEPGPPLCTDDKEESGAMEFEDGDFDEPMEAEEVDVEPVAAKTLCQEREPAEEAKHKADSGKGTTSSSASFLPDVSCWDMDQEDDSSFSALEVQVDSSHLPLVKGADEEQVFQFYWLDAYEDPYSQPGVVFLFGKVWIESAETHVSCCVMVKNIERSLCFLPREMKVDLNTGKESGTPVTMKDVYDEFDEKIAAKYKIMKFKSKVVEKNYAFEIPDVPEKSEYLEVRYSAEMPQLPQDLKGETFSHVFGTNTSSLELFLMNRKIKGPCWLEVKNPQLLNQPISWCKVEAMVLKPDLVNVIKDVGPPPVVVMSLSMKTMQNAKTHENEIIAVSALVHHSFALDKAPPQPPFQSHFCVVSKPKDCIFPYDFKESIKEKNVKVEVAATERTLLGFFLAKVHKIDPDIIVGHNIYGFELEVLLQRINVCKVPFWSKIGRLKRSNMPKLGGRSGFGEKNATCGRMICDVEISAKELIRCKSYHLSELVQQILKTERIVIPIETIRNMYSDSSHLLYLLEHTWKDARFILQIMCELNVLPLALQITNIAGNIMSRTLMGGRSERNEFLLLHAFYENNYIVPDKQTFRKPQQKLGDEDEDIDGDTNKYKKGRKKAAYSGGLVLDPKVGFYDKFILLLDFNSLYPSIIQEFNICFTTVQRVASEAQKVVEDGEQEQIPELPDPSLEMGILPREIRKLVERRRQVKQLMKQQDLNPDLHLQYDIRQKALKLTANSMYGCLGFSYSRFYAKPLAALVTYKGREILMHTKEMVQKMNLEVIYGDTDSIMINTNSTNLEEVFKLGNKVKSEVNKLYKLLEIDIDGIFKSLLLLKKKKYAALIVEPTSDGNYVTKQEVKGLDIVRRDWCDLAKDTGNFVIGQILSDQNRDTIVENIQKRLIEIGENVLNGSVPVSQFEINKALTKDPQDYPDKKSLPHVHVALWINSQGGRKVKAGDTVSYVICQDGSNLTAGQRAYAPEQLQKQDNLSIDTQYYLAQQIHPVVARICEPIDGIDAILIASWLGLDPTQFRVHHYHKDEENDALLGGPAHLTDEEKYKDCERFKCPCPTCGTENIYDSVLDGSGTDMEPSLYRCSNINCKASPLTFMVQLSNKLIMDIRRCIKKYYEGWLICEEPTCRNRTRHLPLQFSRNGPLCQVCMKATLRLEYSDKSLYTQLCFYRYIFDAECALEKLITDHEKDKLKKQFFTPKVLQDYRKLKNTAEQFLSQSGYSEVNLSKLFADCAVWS
T2 sequence (Q58D13 whole entry partner): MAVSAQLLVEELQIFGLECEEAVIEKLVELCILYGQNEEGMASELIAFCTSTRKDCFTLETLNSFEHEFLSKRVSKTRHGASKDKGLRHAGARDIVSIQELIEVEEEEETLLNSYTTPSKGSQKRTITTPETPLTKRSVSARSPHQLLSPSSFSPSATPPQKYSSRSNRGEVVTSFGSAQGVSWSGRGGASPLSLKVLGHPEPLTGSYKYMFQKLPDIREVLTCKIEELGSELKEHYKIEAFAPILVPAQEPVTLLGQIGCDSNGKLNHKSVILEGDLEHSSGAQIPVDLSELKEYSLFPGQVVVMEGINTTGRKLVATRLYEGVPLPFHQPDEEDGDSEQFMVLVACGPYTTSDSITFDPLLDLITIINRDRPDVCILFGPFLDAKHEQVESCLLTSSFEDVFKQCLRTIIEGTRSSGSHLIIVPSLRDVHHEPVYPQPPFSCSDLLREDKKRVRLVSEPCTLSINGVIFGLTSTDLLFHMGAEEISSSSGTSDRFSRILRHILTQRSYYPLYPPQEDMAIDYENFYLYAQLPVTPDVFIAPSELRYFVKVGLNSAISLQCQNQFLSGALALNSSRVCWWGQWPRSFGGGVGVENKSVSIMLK
T2 sequence (A0A3Q1MF00 1-418 partner): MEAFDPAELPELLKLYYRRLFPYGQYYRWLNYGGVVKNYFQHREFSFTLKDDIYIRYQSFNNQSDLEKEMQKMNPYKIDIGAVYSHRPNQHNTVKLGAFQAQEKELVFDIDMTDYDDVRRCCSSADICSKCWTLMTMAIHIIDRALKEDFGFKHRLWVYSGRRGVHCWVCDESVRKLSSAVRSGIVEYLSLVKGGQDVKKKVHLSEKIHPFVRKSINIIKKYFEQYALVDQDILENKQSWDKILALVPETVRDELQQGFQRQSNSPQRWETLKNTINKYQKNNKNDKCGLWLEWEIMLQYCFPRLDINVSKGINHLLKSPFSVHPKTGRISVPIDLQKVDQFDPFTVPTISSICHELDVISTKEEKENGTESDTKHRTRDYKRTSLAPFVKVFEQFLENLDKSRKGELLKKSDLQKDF
T2 sequence (A0JNF4 1-506 partner): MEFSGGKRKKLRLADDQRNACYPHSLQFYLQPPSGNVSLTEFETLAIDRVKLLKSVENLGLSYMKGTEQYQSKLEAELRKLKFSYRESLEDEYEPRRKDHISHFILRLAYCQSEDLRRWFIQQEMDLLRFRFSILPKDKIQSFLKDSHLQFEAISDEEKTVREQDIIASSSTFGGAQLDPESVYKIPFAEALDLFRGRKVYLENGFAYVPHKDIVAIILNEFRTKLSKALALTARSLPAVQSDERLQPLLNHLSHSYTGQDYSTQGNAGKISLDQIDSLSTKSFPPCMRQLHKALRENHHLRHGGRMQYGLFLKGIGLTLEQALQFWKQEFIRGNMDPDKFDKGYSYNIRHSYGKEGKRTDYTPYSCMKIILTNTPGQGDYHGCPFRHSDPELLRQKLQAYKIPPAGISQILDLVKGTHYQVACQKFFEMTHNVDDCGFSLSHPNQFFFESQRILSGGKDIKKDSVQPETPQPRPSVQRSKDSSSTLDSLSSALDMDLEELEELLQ

As to `CC1(C)[C@@H](O[C@H]2O[C@H](C(=O)O)[C@@H](O)[C@H](O)[C@H]2O[C@@H]2O[C@H](C(=O)O)[C@@H](O)[C@H](O)[C@H]2O)CC[C@]2(C)[C@H]3C(=O)C=C4[C@@H]5C[C@@](C)(C(=O)O)CC[C@]5(C)CC[C@@]4(C)[C@]3(C)CC[C@@H]12` [compound 1, 3-O-(2-O-β-D-glucopyranuronosyl-α-D-glucopyranuronosyl)-18β-glycyrrhetinic acid], the activity at 100 µM at human pol κ [1], at calf pol α and on human pol λ [2] was under 50% throughout.
In the case of `CC1(C)[C@@H](O[C@@H]2O[C@H](C(=O)O)[C@@H](O)[C@H](O)[C@H]2O[C@@H]2O[C@H](C(=O)O)[C@@H](O)[C@H](O)[C@H]2O)CC[C@]2(C)[C@H]3C(=O)C=C4[C@@H]5C[C@@](C)(C(=O)O)CC[C@]5(C)CC[C@@]4(C)[C@]3(C)CC[C@@H]12` [compound 2, dipotassium glycyrrhizate], the activity at 100 µM on calf pol α and on human pol λ [2] was under 50% throughout.
Regarding `CC1(C)[C@@H](O)CC[C@]2(C)[C@H]3C(=O)C=C4[C@@H]5C[C@@](C)(C(=O)O)CC[C@]5(C)CC[C@@]4(C)[C@]3(C)CC[C@@H]12` [compound 3, Glycyrrhetinic acid], the figures for the IC50 against human pol λ [3], against human pol γ and on human pol κ [4] were 13.7 µM, 19.3 µM and 15.8 µM, respectively.

(Values after article PMC3138047 (Evidence-based Complementary and Alternative Medicine : eCAM, 2011).)
